Results on twelve molecules are retold here after US6372785B1, “Synthesis of 1,8-dichloro-anthracene analogues and pharmaceutical compositions based thereon” (Keith Chan, President GloboAsia, LLC, priority 2000, dated 2002).

As to `O=C(CCCBr)Oc1c2c(Cl)cccc2cc2cccc(Cl)c12` [Compound 3I, 1,8-Dichloro-9-(4-bromobutyroxy)anthracene], the melting point was 155 to 157 °C.
The figure for `Cc1cccc(C(=O)Oc2c3c(Cl)cccc3cc3cccc(Cl)c23)c1` [Compound 3n, 1,8-Dichloro-9-(m-toluoyloxy)anthracene] is 196 to 198 °C.
The figure for `CCCC(=O)Oc1c2c(Cl)cccc2cc2cccc(Cl)c12` [Compound 3h, 1,8-Dichloro-9-butyroxyanthracene] is 152 to 154 °C; for `CC(C)C(=O)Oc1c2c(Cl)cccc2cc2cccc(Cl)c12` [Compound 3e, 1,8-Dichloro-9-isobutyroxyanthracene] it is 184 to 186 °C; for `Cc1ccccc1C(=O)Oc1c2c(Cl)cccc2cc2cccc(Cl)c12` [Compound 3m, 1,8-Dichloro-9-(o-toluoyloxy)anthracene] it is 168 to 170 °C.
For the molecule `O=C(CCl)Oc1c2c(Cl)cccc2cc2cccc(Cl)c12` [Compound 3c, 1,8-Dichloro-9-chloroacetoxyanthracene], the melting point is 178 to 180 °C.
In the case of `CCCCCC(=O)Oc1c2c(Cl)cccc2cc2cccc(Cl)c12` [Compound 3k, 1,8-Dichloro-9-hexanoyloxyanthracene], the melting point lay within 136 to 138 °C.
`CCC(=O)Oc1c2c(Cl)cccc2cc2cccc(Cl)c12` [Compound 3d, 1,8-Dichloro-9-propionoxyanthracene] returned a melting point of 150 to 152 °C.
The figure for `O=C(CBr)Oc1c2c(Cl)cccc2cc2cccc(Cl)c12` [Compound 3b, 1,8-Dichloro-9-bromoacetoxyanthracene] is 192 to 193 °C; for `Cc1ccc(C(=O)Oc2c3c(Cl)cccc3cc3cccc(Cl)c23)cc1` [Compound 3o, 1,8-Dichloro-9-(p-toluoyloxy)anthracene] it is 220 to 222 °C; for `CC(=O)Oc1c2c(Cl)cccc2cc2cccc(Cl)c12` [Compound 3a, 1,8-Dichloro-9-acetoxyanthracene] it is 130 to 131 °C.
With `O=C(Oc1c2c(Cl)cccc2cc2cccc(Cl)c12)c1ccccc1` [Compound 3L, 1,8-Dichloro-9-benzoyloxyanthracene], the melting point was 183 to 185 °C.
